pEC50, pIC50: −log10 of the molar value. Active and inactive are the calls of the source. The rule behind the calls is not given here.
What was measured:
[1] = tested on: Mus musculus; experiment: Upregulation of plasma EPO level in Balb/c mouse at 10 mg/kg, po administered as single dose measured after 8 hrs by ELISA; type: functional
[2] = in vitro; settings: human, Caco-2
[3] = molecular target: Cytochrome P450 2C9 (Homo sapiens, UniProt P11712); experiment: Inhibition of CYP2C9 in human liver microsomes by LC-MS/MS analysis; type: ADME
Chain of Cytochrome P450 2C9 (P11712 whole entry): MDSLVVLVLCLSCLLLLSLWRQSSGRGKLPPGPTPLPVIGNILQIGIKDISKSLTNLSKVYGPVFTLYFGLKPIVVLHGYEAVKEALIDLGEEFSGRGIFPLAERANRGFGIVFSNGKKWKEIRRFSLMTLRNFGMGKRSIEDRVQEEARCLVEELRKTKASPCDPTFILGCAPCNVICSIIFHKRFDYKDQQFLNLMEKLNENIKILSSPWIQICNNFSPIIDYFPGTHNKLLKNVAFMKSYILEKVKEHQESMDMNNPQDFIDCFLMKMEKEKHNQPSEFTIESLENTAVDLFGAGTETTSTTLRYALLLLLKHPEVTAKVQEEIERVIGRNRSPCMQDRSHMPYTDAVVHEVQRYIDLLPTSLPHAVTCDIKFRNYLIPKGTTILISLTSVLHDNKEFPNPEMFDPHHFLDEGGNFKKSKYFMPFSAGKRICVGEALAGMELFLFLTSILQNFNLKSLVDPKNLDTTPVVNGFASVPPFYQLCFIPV

[4] = molecular target: T1, Cytochrome P450 2C8 (Homo sapiens, UniProt P10632); experiment: Inhibition of CYP2C8 in human liver microsomes by LC-MS/MS analysis; type: ADME
T1 sequence (P10632 whole entry): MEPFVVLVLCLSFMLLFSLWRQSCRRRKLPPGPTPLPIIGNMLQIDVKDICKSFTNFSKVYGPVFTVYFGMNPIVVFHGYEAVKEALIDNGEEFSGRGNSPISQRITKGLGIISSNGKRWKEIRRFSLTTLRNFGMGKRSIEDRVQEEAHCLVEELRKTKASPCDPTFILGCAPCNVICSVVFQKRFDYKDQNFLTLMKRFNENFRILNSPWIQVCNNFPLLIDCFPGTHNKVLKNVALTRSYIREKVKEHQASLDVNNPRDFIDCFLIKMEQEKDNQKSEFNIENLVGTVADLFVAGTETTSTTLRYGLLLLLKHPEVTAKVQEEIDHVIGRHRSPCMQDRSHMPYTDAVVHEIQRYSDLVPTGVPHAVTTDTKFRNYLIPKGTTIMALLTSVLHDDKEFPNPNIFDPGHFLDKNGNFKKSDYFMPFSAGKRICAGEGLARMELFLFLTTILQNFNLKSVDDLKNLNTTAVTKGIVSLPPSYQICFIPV

[5] = Oral bioavailability in CD(SD) rat at 1 mg/kg; type: ADME, organism-based; settings: in vivo
[6] = tested on: Rattus norvegicus; experiment: Antianemic activity in po dosed CD(SD) rat assessed as increase in hemoglobin levels administered once daily for 28 days; type: functional, organism-based
[7] = Solubility of the compound in FeSSIF after 4 hrs by LC-MS analysis; type: physicochemical
[8] = molecular target: Cytochrome P450 2D6 (Homo sapiens, UniProt P10635); experiment: Inhibition of CYP2D6 in human liver microsomes by LC-MS/MS analysis; type: ADME
Chain of Cytochrome P450 2D6 (P10635 whole entry): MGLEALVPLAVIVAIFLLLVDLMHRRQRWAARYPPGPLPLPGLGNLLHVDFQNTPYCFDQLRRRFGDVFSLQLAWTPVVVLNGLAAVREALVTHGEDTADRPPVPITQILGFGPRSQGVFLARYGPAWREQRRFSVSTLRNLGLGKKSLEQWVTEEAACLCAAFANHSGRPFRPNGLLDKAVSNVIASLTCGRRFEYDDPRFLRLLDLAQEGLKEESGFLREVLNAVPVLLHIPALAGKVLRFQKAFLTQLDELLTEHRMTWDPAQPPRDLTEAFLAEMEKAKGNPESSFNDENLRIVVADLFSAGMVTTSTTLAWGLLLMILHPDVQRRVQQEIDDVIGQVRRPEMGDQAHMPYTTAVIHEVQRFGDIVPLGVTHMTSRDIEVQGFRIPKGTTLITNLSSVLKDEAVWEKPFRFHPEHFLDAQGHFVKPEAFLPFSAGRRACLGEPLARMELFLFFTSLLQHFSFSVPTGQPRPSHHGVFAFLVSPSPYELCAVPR

[9] = Cmax in CD(SD) rat at 1 mg/kg, po; type: ADME, organism-based; set-up: dose 1 mg/kg, route oral; settings: in vivo
[10] = Tmax in CD(SD) rat at 1 mg/kg, po; type: ADME, organism-based; settings: in vivo
[11] = molecular target: Cytochrome P450 3A5 (Homo sapiens, UniProt P20815); experiment: Inhibition of CYP3A5 in human liver microsomes using midazolam as substrate by LC-MS/MS analysis; type: ADME
Chain of Cytochrome P450 3A5 (P20815 whole entry): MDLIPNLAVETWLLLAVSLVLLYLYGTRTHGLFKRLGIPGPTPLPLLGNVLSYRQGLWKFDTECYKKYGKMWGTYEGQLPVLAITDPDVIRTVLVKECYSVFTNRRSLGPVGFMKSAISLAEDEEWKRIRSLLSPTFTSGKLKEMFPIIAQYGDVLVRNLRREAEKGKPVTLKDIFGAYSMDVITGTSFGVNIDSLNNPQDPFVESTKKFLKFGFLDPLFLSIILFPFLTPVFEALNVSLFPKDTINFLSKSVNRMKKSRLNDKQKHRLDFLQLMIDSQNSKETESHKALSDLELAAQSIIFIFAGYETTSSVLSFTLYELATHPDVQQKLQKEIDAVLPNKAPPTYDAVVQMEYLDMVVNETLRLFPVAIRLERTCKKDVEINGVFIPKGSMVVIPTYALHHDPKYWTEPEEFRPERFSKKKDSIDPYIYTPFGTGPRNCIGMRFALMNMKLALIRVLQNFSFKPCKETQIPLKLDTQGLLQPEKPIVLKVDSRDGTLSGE

[12] = molecular target: Voltage-gated inwardly rectifying potassium channel KCNH2 (Homo sapiens, UniProt Q12809); experiment: Inhibition of human ERG expressed in HEK293 cells at holding potential of -80 mV by whole cell patch clamp method; type: cell-based
Chain of Voltage-gated inwardly rectifying potassium channel KCNH2 (Q12809 whole entry): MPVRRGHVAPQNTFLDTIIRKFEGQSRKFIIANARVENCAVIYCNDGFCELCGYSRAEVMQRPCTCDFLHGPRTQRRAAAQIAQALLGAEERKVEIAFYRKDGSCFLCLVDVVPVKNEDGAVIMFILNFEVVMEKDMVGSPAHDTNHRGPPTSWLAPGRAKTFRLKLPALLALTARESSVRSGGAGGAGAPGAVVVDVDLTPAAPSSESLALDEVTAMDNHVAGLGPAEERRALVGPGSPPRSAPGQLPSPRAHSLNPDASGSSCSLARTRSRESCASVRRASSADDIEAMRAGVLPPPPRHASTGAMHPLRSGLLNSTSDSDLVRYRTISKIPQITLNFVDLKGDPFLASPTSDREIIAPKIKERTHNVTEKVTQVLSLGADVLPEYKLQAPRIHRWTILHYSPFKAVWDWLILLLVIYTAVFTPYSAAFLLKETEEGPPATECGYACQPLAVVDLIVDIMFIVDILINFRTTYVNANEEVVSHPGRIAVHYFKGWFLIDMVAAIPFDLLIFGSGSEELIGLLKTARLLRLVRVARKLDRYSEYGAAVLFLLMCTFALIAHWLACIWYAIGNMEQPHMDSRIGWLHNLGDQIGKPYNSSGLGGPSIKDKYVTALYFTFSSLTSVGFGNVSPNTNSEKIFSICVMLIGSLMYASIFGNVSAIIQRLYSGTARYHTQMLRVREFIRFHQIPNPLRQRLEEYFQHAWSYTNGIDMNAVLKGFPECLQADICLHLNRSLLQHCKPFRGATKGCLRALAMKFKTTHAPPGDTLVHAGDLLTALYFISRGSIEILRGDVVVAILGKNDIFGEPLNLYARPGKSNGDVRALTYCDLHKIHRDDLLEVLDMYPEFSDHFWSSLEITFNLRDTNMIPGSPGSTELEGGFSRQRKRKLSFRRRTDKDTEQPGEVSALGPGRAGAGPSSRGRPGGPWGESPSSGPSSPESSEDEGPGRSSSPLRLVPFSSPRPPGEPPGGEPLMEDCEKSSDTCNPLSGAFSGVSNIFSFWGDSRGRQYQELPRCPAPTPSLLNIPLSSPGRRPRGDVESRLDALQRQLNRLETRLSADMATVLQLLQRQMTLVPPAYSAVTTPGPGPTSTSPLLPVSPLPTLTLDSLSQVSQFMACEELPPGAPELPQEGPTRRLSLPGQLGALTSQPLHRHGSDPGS

[13] = Solubility of the compound in FaSSIF after 4 hrs by LC-MS analysis; type: physicochemical
[14] = molecular target: Cytochrome P450 3A4 (Homo sapiens, UniProt P08684); experiment: Inhibition of CYP3A4 in human liver microsomes using midozolam as substrate by LC-MS/MS analysis; type: ADME
Chain of Cytochrome P450 3A4 (P08684 whole entry): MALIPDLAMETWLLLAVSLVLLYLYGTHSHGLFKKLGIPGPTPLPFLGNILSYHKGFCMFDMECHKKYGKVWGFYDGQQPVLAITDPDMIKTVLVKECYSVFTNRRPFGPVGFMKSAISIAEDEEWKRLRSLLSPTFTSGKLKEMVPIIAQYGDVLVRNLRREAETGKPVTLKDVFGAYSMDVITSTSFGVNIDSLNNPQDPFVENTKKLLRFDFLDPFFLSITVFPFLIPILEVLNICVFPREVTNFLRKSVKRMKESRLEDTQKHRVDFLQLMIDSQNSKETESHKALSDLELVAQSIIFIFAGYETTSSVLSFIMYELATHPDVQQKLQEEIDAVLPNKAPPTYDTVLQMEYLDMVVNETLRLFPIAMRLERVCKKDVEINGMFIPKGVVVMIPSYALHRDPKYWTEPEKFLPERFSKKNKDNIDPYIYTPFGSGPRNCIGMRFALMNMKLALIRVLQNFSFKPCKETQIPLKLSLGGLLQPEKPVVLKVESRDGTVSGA

[15] = molecular target: T2, Cytochrome P450 1A2 (Homo sapiens, UniProt P05177); experiment: Inhibition of CYP1A2 in human liver microsomes by LC-MS/MS analysis; type: ADME
T2 sequence (P05177 whole entry): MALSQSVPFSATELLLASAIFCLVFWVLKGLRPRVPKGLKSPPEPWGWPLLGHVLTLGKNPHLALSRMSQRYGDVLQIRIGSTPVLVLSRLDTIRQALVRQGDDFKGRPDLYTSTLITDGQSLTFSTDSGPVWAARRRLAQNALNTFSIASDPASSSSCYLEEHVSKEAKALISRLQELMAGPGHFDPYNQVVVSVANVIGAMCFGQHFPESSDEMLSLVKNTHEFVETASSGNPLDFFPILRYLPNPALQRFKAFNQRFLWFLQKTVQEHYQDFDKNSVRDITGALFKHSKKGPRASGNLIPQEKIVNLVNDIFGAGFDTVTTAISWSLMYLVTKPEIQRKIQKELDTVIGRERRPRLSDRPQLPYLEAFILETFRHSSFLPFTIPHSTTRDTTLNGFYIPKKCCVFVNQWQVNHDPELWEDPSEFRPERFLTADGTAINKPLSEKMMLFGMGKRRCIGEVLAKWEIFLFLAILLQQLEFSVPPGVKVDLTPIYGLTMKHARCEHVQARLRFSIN

[16] = Metabolic stability in Beagle dog liver microsomes assessed as compound remaining at 10 uM after 120 mins in presence of NADPH by Radio-HPLC analysis; type: ADME, Canis lupus familiaris, microsome; settings: read-out: Stability
[17] = Metabolic stability in cynomolgus monkey liver microsomes assessed as compound remaining at 10 uM after 120 mins in presence of NADPH by Radio-HPLC analysis; type: ADME, Macaca fascicularis, microsome; settings: read-out: Stability
[18] = tested on: Rattus norvegicus; experiment: Toxicity in CD(SD) rat assessed as induction of anorexia at 100 mg/kg, po administered as single dose; type: organism-based; settings: in vivo
[19] = Metabolic stability in Sprague-Dawley rat liver microsomes assessed as compound remaining at 10 uM after 120 mins in presence of NADPH by Radio-HPLC analysis; type: ADME, microsome; settings: read-out: Stability
[20] = Half life in CD(SD) rat at 0.3 mg/kg, iv; type: ADME, organism-based; settings: in vivo
[21] = molecular target: Egl nine homolog 1 (Homo sapiens, UniProt Q9GZT9); experiment: Inhibition of PHD2 in human Hep3B cells assessed as increase in EPO release after 24 hrs by ELISA; type: cell-based
Chain of Egl nine homolog 1 (Q9GZT9 whole entry): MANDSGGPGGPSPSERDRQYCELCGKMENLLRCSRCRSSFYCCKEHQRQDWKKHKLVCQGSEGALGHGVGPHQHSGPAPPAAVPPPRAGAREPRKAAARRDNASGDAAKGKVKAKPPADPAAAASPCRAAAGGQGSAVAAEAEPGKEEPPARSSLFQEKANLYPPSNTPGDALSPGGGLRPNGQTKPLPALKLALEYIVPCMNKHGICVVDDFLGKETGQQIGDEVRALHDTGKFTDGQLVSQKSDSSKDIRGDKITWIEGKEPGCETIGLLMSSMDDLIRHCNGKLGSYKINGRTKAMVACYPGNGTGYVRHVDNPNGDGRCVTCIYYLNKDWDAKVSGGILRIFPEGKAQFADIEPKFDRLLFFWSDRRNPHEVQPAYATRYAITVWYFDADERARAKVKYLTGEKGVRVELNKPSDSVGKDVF

[22] = Metabolic stability in human pooled liver microsomes assessed as compound remaining at 10 uM after 120 mins in presence of NADPH by Radio-HPLC analysis; type: ADME, microsome; settings: read-out: Stability
[23] = molecular target: T3, Cytochrome P450 2A6 (Homo sapiens, UniProt P11509); experiment: Inhibition of CYP2A6 in human liver microsomes by LC-MS/MS analysis; type: ADME
T3 sequence (P11509 whole entry): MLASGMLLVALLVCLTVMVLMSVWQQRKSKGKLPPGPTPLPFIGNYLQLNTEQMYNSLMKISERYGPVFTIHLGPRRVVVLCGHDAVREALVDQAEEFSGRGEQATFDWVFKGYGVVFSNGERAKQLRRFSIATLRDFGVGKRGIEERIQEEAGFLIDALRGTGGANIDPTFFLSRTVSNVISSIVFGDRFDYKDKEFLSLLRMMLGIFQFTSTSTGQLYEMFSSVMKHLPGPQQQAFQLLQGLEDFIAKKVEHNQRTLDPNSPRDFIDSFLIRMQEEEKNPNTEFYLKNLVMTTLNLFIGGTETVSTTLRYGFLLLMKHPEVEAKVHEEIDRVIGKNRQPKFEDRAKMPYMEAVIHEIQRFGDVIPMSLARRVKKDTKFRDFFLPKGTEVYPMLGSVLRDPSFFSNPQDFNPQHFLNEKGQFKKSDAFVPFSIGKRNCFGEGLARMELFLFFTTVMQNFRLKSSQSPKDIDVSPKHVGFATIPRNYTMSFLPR

[24] = Volume of distribution at steady state in CD(SD) rat at 0.3 mg/kg, iv; type: ADME, organism-based; settings: in vivo, read-out: Vdss
[25] = molecular target: Cytochrome P450 2C19 (Homo sapiens, UniProt P33261); experiment: Inhibition of CYP2C19 in human liver microsomes by LC-MS/MS analysis; type: ADME
Chain of Cytochrome P450 2C19 (P33261 whole entry): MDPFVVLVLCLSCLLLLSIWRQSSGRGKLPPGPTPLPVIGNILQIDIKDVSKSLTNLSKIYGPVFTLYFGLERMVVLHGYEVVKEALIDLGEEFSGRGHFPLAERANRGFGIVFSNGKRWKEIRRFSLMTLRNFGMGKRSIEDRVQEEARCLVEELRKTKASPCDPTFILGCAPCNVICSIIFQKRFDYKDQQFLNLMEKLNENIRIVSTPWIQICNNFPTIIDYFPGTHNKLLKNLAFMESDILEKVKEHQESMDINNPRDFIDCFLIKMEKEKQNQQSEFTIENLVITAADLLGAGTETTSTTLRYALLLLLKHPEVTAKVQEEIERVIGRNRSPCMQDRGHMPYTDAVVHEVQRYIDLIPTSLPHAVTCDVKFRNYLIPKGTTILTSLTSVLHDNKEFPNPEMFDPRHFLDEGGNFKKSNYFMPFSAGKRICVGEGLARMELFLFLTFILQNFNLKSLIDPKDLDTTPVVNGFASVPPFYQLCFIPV

[26] = molecular target: T4, Cytochrome P450 2B6 (Homo sapiens, UniProt P20813); experiment: Inhibition of CYP2B6 in human liver microsomes by LC-MS/MS analysis; type: ADME
T4 sequence (P20813 whole entry): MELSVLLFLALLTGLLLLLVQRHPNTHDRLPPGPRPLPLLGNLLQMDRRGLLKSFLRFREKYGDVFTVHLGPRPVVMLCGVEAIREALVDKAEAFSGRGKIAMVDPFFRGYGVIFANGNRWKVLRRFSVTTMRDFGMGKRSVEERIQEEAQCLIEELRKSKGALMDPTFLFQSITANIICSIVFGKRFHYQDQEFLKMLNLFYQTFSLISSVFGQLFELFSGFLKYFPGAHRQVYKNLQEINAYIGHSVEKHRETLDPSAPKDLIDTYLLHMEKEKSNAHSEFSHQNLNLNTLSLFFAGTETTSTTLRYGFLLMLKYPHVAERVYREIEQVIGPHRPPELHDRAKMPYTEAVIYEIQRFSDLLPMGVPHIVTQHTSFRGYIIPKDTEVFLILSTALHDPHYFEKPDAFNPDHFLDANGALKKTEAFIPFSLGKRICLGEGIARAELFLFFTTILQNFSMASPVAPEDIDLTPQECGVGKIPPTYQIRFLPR

[27] = Total clearance in CD(SD) rat at 0.3 mg/kg, iv; type: ADME, organism-based; settings: in vivo
[28] = tested on: Rattus norvegicus; experiment: Upregulation of plasma EPO level in CD(SD) rat at 10 mg/kg, po administered as single dose measured after 8 hrs by RIA; type: functional
[29] = MRT in CD(SD) rat at 0.3 mg/kg, iv; type: ADME, organism-based; settings: in vivo
[30] = tested on: Rattus norvegicus; experiment: Antianemic activity in CD(SD) rat assessed as increase in hemoglobin levels at 3 mg/kg, po administered once daily for 28 days; type: functional, organism-based
[31] = tested on: Rattus norvegicus; experiment: Antianemic activity in CD(SD) rat assessed as increase in hemoglobin levels at 10 mg/kg, po administered once daily for 28 days; type: functional, organism-based

SMILES: Cc1nc2c(C(=O)NCC(=O)O)c(O)cc(CCc3ccccc3)n2n1.Cl
- Activity [1]: <260 pg/mL
- Papp A→B at 2 h, 25 µM [2]: 8.9 ×10⁻⁶ cm/s

SMILES: O=C(O)CNC(=O)c1c(O)cc(-c2cccc(Cl)c2)c2ncnn12
- Activity [1]: <265 pg/mL
- Papp A→B at 2 h, 25 µM [2]: 15 ×10⁻⁶ cm/s

SMILES: O=C(O)CNC(=O)c1c(O)ccn2ccnc12
- Papp A→B at 2 h, 25 µM [2]: 0.8 ×10⁻⁶ cm/s

SMILES: Cl.O=C(O)CNC(=O)c1c(O)cc(-c2ccccc2)c2ncnn12
- Activity [1]: <260 pg/mL
- Papp A→B at 2 h, 25 µM [2]: 6.5 ×10⁻⁶ cm/s

SMILES: Cl.O=C(O)CNC(=O)c1c(O)cc(-c2ccccc2)n2ncnc12
- Activity [1]: <320 pg/mL
- Papp A→B at 2 h, 25 µM [2]: 2.5 ×10⁻⁶ cm/s

SMILES: Cl.O=C(O)CNC(=O)c1c(O)ccn2cnnc12
- Papp A→B at 2 h, 25 µM [2]: < 0.4 ×10⁻⁶ cm/s

SMILES: Cl.O=C(O)CNC(=O)c1c(O)cc(CCc2ccccc2)n2ncnc12
- pIC50 [3]: < 4.00
- pIC50 [4]: < 4.00
- bioavailability [5]: 75%
- Activity [6]: Dose-dependent effect
- solubility at 4 h [7]: 1300 µM
- pIC50 [8]: < 4.00
- Cmax [9]: 2700 ng/mL
- Tmax [10]: 0.33 h
- pIC50 [11]: < 4.00
- pIC50 [12]: < 4.00
- solubility at 4 h [13]: > 2900 µM
- pIC50 [14]: < 4.00
- Activity [1]: 6500 pg/mL
- pIC50 [15]: < 4.00
- remaining at 2 h, 10 µM [16]: 100%
- remaining at 2 h, 10 µM [17]: 94%
- Activity [18]: Non-Toxic
- remaining at 2 h, 10 µM [19]: 98%
- half-life [20]: 1.4 h
- pEC50 [21]: 5.24
- remaining at 2 h, 10 µM [22]: 94%
- pIC50 [23]: < 4.00
- Vd [24]: 0.28 L/kg
- pIC50 [25]: < 4.00
- Papp A→B at 2 h, 25 µM [2]: 13 ×10⁻⁶ cm/s
- pIC50 [26]: < 4.00
- clearance [27]: 2.7 mL/min/kg
- Activity [28]: 17000 pg/mL
- MRT [29]: 1.8 h

SMILES: CCCCc1cc(O)c(C(=O)NCC(=O)O)c2ncnn12.Cl
- Activity [30]: inactive
- Activity [31]: Active
- Activity [1]: 3700 pg/mL
- Activity [18]: Non-Toxic
- Papp A→B at 2 h, 25 µM [2]: 9.9 ×10⁻⁶ cm/s
- Activity [28]: 2200 pg/mL

SMILES: Cl.O=C(O)CNC(=O)c1c(O)cc(CCc2ccc(F)cc2)n2ncnc12
- Activity [1]: 1000 pg/mL
- Papp A→B at 2 h, 25 µM [2]: 12 ×10⁻⁶ cm/s

SMILES: CCCCCc1cc(O)c(C(=O)NCC(=O)O)c2ncnn12.Cl
- Activity [1]: 2300 pg/mL
- Activity [18]: Toxic
- Papp A→B at 2 h, 25 µM [2]: 20 ×10⁻⁶ cm/s
- Activity [28]: 11000 pg/mL

From ChEMBL document CHEMBL4138259, “Discovery of JTZ-951: A HIF Prolyl Hydroxylase Inhibitor for the Treatment of Renal Anemia” (ACS Med Chem Lett, 2017)
